Measurements from patent publication US20040086471A1, “Compositions for darkening the skin and/or hair” (priority 2002, published 2004).

How the values were obtained:
[1] = test system: Type IV pigmented epidermal equivalents (human melanocytes and keratinocytes); tyrosinase activity / melanin deposition; assay: Pigmentation in pigmented epidermal equivalents (DOPA and F&M staining); type: cell-based; conditions: for Overall Score (change of pigmentation by DOPA and F&M staining) / Score DOPA staining (tyrosinase activity) / Score F&M staining (Pigment deposition): 0.1% (w/v) in PBS, treated three or five days, type IV epidermal equivalents
Experimental: Copper PCA (Barnet Products Corp., Englewood cliffs, N.J.) was tested for its ability to induce pigmentation in pigmented epidermal equivalents. The pigmented epidermal equivalents contained human normal melanocytes, together with normal, human-derived epidermal keratinocytes, which have been cultured to form a multi-layered, highly differentiated model of the human epidermis. Type IV pigmented epidermal equivalents (consisting of normal human keratinocytes pooled from variety of phototype skins and normal human melanocytes derived from type IV phototype skin) were treated with test compounds for three or five days and samples were harvested on the fourth or sixth day of the study. The harvested equivalents were stained with DOPA (a substrate for tyrosinase) or with Fontana-Mason (F&M) (Sheenan DC, Hrapckak BB, eds: Theory and practice of Histo-Thchnology (St Louis: CV Mosby, 1980) pp 223-277). F&M staining identifies silver nitrate reducing activity, which, in skin, identifies melanin.
The epidermal equivalents used were SkinEthic® reconstructed human epidermis from SkinEthic™ Laboratory (Nice, France). UV irradiation was performed with a UVB FS light source in an exposure chamber, with plate covers removed and Phosphate-buffered saline (PBS, from Gibco-BRL, Gaithersburg, Md.) present in the lower chamber. UVB intensity was measured with a UVX radiometer (UVP Inc., San Gabriel, Ca.). Equivalents were treated with 0.1-0.12 J/cm2. […] The copper PCA and tyrosine were dissolved in PBS.
On the fourth or sixth day of the study, the equivalents were fixed, sectioned and F&M stained, or they were DOPA stained as whole without sectioning, using standard techniques. At least three sections per equivalent, three equivalents per experiment were processed. Each experiment was repeated three times. DOPA-stained epidermal equivalents were evaluated for the change in tyrosinase activity. F&M-stained histological sections were evaluated for the change in pigment deposition. Due to the low content of melanin within the type IV epidermal equivalent, it was not possible to quantify the level of pigment within melanocytes in F&M stained sections by image analysis. Therefore, the pigment change was evaluated using the scale defined below in Table 1.
Table 2 represents the overall score in change of pigmentation, as evaluated by DOPA and F&M staining, as set forth above, when equivalents were exposed to Copper PCA (0.1% (w/v)) and/or tyrosine (0.1% (w/v)) or UVB irradiation (0.10J/cm^2).

[2] = test system: skin of Yucatan microswine; assay: Pigment deposition in swine skin in vivo (F&M histology of biopsies); conditions: for pigment deposition in swine skin (in words): topical, in vivo, histological analysis
Excerpt: Dark skinned Yucatan microswine (Charles River, Portland, Me.) were housed in appropriately sized cages in an environmentally controlled room with a 12-hour light—12-hour dark photoperiod and supplied with food and water ad libi tum. Twenty μl of test materials were applied topically, twice a day, five days/week, for eight or nine weeks, on the dorsum of the swine. Treatments of individual swine were always arranged in a head to tail order on one side, and in a tail to head order on the other side of the animal. Biopsies were taken using standard techniques.
Swine were treated with either 0.5% w(w/v) of the copper PCA and/or tyrosine or ultraviolet-B radiation (as a positive control). The copper PCA and tyrosine were dissolved in ethanol: propylene glycol 70:30 (v/v). A […] erythema dose (MED) of UVB was determined by placing a plastic template with 1×1 inch^2 cutouts on the dorsum of the swine. Using a UVB lamp (Model UVM-57, 302 nm lamp, UVP Inc., Upland, Calif.) placed on the template, sites were exposed to UVB with increasing time points, every other day for five days. Unexposed sites were covered with the same material as the template. One MED was established as the dose that produces the least amount of visible erythema. Swine were exposed to one MED, once per day, on three alternate days (Mon, Wed, Fri).
Following eight weeks of treatment, skin biopsies were taken using standard methods, for pigment deposition analysis. Sections from the skin biopsies were stained with Hematoxylin and Eosin (H&E), or with Fontana-Mason (F&M), using standard procedures (Sheenan DC, Hrapckak BB, eds., Theory and Practice of Histo-Technology (The C. V. Mosby Co., St. Louis (1980) pp. 223-277). At least three sections per biopsy were processed. Each experiment was repeated at least two times.
Table 4 represents the average value of all sites of responsive swine treated with each test material. The scale for evaluation is defined in Table 3.

tyrosinase activity in human pigmented epidermal equivalents (in words) ([1]; in vitro) | Compound | Overall Score (change of pigmentation by DOPA and F&M staining) [1] | Score DOPA staining (tyrosinase activity) [1] | Score F&M staining (Pigment deposition) [1] | Score (pigment deposition, capped epidermal cells) ([2]; 0.5% (w/v) topical, twice a day, five days/week, eight weeks, average of all sites of responsive swine) | pigment deposition in swine skin (in words) [2] | pigment deposition in swine skin (in words) ([2]; listed as copper PCA)
– | N[C@@H](Cc1ccc(O)cc1)C(=O)O [Tyrosine, tyrosine] | 0-2 | 1-2 | 0-1 | – | – | –
significantly increases | O=C1CC[C@@H](C(=O)[O-])N1.O=C1CC[C@@H](C(=O)[O-])N1.[Cu+2] [Copper PCA] | 1-2 | 1-2 | 1-2 | 2-3 | enhanced pigment deposition | significantly increases
